Data set [1] concerns the target T1, glucose oxidase (Aspergillus niger, UniProt P13006).
T1 construct: purchased Sigma (St. Louis, Mo.)
Briefly: Kinetic studies of the blue dye with oxidases (Michaelis-Menten constant). Type of data set: biochemical. Conditions: compared with lactate oxidase and xanthine oxidase.

The conditions of data set [2]: water; cited from earlier work.
Data set [3] in a line: Sensitivity of the dye / its absorption characteristics to pH variation. The class given is physicochemical. Conditions: products of chemical oxidation by ceric sulfate or iodine/KI. The source says: It was also noted that the DMFeCp2 -hp-β-CD complex stored at room temperature began to turn green, indicating a preference toward the oxidized state. As also reported, 15 the redox potential of DMFeCp2 is lowest (100 mV) among several known ferrocene-related compounds and this may contribute to the stability of DMFeCp2^+ in comparison to FeCp2^+. Both forms of ferricinium were insensitive to pH variation from 2-11. This characteristic is of advantage since the assay can be performed regardless of some fluctuation in pH and is applicable for a variety of oxidases with different pH optima. Due to the instability of the concentrated FeCp2^+, further studies focused on the electrochemically produced DMFeCp2^+.
Both FeCp2 and DMFeCp2 were oxidized by ceric sulfate or iodine/KI to FeCp2 H^+, (ferrocenonium) and DMFeCp2 H^+ (1,1'-dimethylferrocenonium), respectively. The reaction was almost instantaneous and the spectra of these two cation species were identical to those of ferricinium and 1,1'-dimethylferricinium. […] Such results were not completely unexpected since in strong acid media ferrocene was reported to undergo extensive protonation on the metal atom.

The conditions of data set [4]: prepared with soluble bilirubin oxidase, stored at 4° C.
Procedure: During the time course of oxidation, the current decreased and the solution turned from yellow to green and finally to dark blue. The development of the blue color was monitored at the absorption maximum for FeCp2^+ at 620 nm or DMFeCp2^+ at 650 nM (FIG. 2 A, B).
The enzyme was destroyed by lowering the pH to 2.5 and after 2 min incubation, the pH was readjusted to 6.8. […] It should be noted that the absorption characteristics of the blue dye were not affected by a pH variation from 2.5 to 11.

T1 sequence (P13006 17-605): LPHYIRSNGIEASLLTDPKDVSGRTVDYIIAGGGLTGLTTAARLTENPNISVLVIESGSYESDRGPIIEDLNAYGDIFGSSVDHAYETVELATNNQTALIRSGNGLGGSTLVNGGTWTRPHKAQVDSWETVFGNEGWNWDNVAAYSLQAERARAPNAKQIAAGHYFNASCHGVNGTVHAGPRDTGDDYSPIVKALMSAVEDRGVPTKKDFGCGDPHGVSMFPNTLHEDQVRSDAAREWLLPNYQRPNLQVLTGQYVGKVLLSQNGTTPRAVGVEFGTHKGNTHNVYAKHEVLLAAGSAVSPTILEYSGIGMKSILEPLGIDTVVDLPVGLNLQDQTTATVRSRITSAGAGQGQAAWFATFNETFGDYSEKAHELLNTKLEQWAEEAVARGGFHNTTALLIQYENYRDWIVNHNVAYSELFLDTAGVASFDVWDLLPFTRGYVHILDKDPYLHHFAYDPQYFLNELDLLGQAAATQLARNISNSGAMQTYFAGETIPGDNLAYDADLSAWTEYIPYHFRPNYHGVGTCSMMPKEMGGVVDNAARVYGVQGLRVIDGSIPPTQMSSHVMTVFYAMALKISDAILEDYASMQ

Consider 1,1'-dimethylferricinium [DMFeCp2^+], for which the “Michaelis-Menten constant for the blue dye” value in data set [1] is on record as “noticeably higher”. For “2-hydroxypropyl-β-cyclodextrin [Hp-β-CD]”, in data set [2], the “solubility of the cyclodextrin in aqueous solutions” value is 50 % w/v.

In the case of `CC1C=CC=C1.C[c-]1cccc1.[Fe+2]` [DMFeCp2 H^+, 1,1'-dimethylferrocenonium], the “stability against changes in pH” value in data set [3] is “not stable against changes in pH”. Consider `OC[C@H]1O[C@@H]2O[C@H]3[C@H](O)[C@@H](O)[C@@H](O[C@H]4[C@H](O)[C@@H](O)[C@@H](O[C@H]5[C@H](O)[C@@H](O)[C@@H](O[C@H]6[C@H](O)[C@@H](O)[C@@H](O[C@H]7[C@H](O)[C@@H](O)[C@@H](O[C@H]1[C@H](O)[C@H]2O)O[C@@H]7CO)O[C@@H]6CO)O[C@@H]5CO)O[C@@H]4CO)O[C@@H]3CO` [α-CD, α-cyclodextrin], for which the “solubility of the cyclodextrin in aqueous solutions” value in data set [2] is 12-16 % w/v. The molecule ferricinium [FeCp2^+] returned a time stable in data set [4] of 2 months. For ferrocenonium [FeCp2 H^+], the “stability against changes in pH” value in data set [3] is reported as “not stable against changes in pH”.

These data come from patent US5432274A, “Redox dye and method of preparation thereof using 2-hydroxypropyl-β-cyclodextrin and 1,1'-dimethylferrocene” (National Research Council of Canada, priority 1993, dated 1995).
